# Results taken from publication PMC11653243, “Enhancing Phototoxicity in BODIPY‐Perylene Charge Transfer Dyads by Combined Iodination and Mesylation” (Chemistry (Weinheim an Der Bergstrasse, Germany), 2024).
# “And” between values parts separate entries of the source, which are not always exact repeats. Identical values can stand only once. Like-named read-outs stand apart in the source and are kept apart here.
# Key:
# CHO cells = assay: Cellular uptake and co-localisation by confocal microscopy; format: cell-based, Chinese Hamster; settings: ER Tracker 1 µM, 45 min
# Protocol: The intracellular uptake of the BODIPY derivatives was assessed in two mammalian cell lines, CHO (non‐cancer) and MCF‐7 (cancer). […] B2P and B2PI were studied following 4 h and 17 h incubation in MCF‐7 cells with 10 μM of each BODIPY derivative. A 17 h incubation was selected to allow for adequate cell uptake of the complex, ensuring sufficient brightness for confocal imaging while minimising cell toxicity.
# Across all four compounds uptake of the BODIPYs led to extremely bright and highly punctate staining from within the cells. As all of the BODIPY‐perylene probes emit minimally from aqueous media including cell culture media (Figure S20) the bright emission is attributed to localisation of the complex to non‐aqueous domains, i. e. organelle membranes or to lipid droplets (LDs). To identify which, co‐localisation studies with targeted probes were completed. CHO and MCF‐7 cells were treated with B2P, B2PI, MB2P or MB2PI and co‐stained with specific organelle markers including LD probes; PyLa−C17Cer and BODIPY 493/503, an endoplasmic reticulum stain; ER Tracker Blue‐White and a lysosomal stain; LysoTracker Deep Red. Pyla‐C17Cer was previously published and localises in both the ER and LDs.[41] Cellular uptake of B2PI was recently reported in MCF‐7 cells, though localisation was not explored.[25]
# MCF‐7 and CHO cells were treated with B2P, MB2P, B2PI or MB2PI for 17 h and co‐stained with a number of dyes for co‐staining including LysoTracker Deep Red, ER Tracker Blue/White, PyLa−C17Cer, BODIPY 493/503 and H2DCFDA. Cells were imaged in phenol red free media using a Leica DMi8 confocal microscope with a 63x or 100x oil immersion lens and a heated state at 37 °C.
# Uptake in Live Cell Monolayers
# CHO cells were incubated in 75cm2 cell culture flasks (Corning) with DMEM/F-12 Ham medium (Sigma-Aldrich) with L-glutamine and sodium bicarbonate supplemented with 10% fetal bovine serum (FBS) (Gibco) and 1% penicillin-streptomycin (Sigma-Aldrich). MCF-7 cells were incubated in 25cm2 cell culture flasks with RPMI-1640 medium (Sigma-Aldrich) with L-glutamine and sodium bicarbonate supplemented with 10% fetal bovine serum (FBS, Gibco) and 1% penicillin-streptomycin. Cells were incubated at 37 °C with 5% CO2 and detached from the flask at 90% confluency using a 1X Trypsin-EDTA solution (Sigma-Aldrich). Cells were counted using the EVE automated cell counter (NanoEnTek) and seeded at 1 x 10^5 cells per mL in a 4 or 8 chamber µ-slide (ibidi) for cell imaging and left for 24 h at 37 °C. Cells were rinsed with 1X PBS (Gibco) and stained with B2P or B2PI at 10 µM and MB2P or MB2PI at 30 µM for 17 h. Cells were washed twice with PBS and covered with phenol red free RPMI medium (Gibco) for imaging. […]
# [1] = set-up: method as in PMID 36802283; settings: cited from earlier work
# [2] = Photophysical properties (absorption, emission, quantum yield, lifetime) in solvents; format: physicochemical; settings: for Φf: absolute quantum yield, integrating sphere; for τave: intensity weighted average lifetime; for kr: kr=ΦF/τave; for emission intensity from water relative to emission intensity from toluene: matched absorption, water with 10 % DMSO
# From the text: The absorption and emission spectra of MB2P and MB2PI are shown in Figure 3, in a range of solvents across polarities. […] The absorption maxima is largely unaffected by solvent, similar to B2P/B2PI. The extinction coefficient is also modestly affected for MB2P but does vary with solvent for MB2PI, although the change is not correlated with solvent polarity. All compounds also show characteristic perylene absorption features between 400 and 430 nm. Also consistent with this previous study, the emission spectra are strongly solvent dependent. Intensely emissive from non‐polar media, MB2P and MB2PI are minimally emissive in polar (ethanol and DMSO) and aqueous media, (with 10 % DMSO for solubilisation). For example, under matched absorption conditions used to generate Figure 3, the emission intensity from water was 0.13 % (MB2P) and 1.6 % (MB2PI) of the emission intensity from toluene (see Figure S20).
# Figure 3 Right, Absorption spectra of (A) MB2P and (B) MB2PI in different solvents at 10 μM, and, left, their respective emission. Excitation wavelength 532 nm, data recorded with 2.5–2.5 nm slit widths.
compound,measurement,setting,value
CC1=C(I)C(C)=[N+]2C1=C(c1ccccc1)c1c(C)c(-c3ccc4c5cccc6cccc(c7cccc3c74)c65)c(C)n1[B-]2(F)F [B2PI],Pearson Coefficient (r) with ER Tracker Blue/White,CHO cells,0.46 ± 0.04 and ~0.5
same,Mol. Bright,[1]; Dioxane,2028
same,Stokes Shift,[1]; Dioxane,3232 cm⁻¹
same,knr,[1]; Dioxane,68 10^7 s^−1
same,kr,[1]; Dioxane,1.8 10^7 s^−1
same,Φf,[1]; Dioxane,0.03
same,λabs,[1]; Dioxane,531 nm
same,λem,[1]; Dioxane,641 nm
same,τave,[1]; Dioxane,1.4±0.01 ns
same,ϵ,[1]; Dioxane,67600 M⁻¹ cm⁻¹
same,Amp of τ1,[1]; Toluene,7.2%
same,Amp of τ2,[1]; Toluene,92.8%
same,Mol. Bright,[1]; Toluene,1899
same,Stokes Shift,[1]; Toluene,3003 cm⁻¹
same,knr,[1]; Toluene,32 10^7 s^−1
same,kr,[1]; Toluene,8.5 10^7 s^−1
same,Φf,[1]; Toluene,0.03
same,λabs,[1]; Toluene,534 nm
same,λem,[1]; Toluene,636 nm
same,τ1,[1]; Toluene,2.9±0.1 ns
same,τ2,[1]; Toluene,0.7±0.01 ns
same,τave,[1]; Toluene,1.2±0.0 ns
same,ϵ,[1]; Toluene,63300 M⁻¹ cm⁻¹
CC1=CC(C)=[N+]2C1=C(c1ccccc1)c1c(C)c(-c3ccc4c5cccc6cccc(c7cccc3c74)c65)c(C)n1[B-]2(F)F [B2P],Pearson Coefficient (r) with ER Tracker Blue/White,CHO cells,0.17 ± 0.06
same,Amp of τ1,[1]; Dioxane,5.3%
same,Amp of τ2,[1]; Dioxane,94.7%
same,Mol. Bright,[1]; Dioxane,6588
same,Stokes Shift,[1]; Dioxane,3417 cm⁻¹
same,knr,[1]; Dioxane,44 10^7 s^−1
same,kr,[1]; Dioxane,4.6 10^7 s^−1
same,Φf,[1]; Dioxane,0.09
same,λabs,[1]; Dioxane,515 nm
same,λem,[1]; Dioxane,625 nm
same,τ1,[1]; Dioxane,4.1±0.2 ns
same,τ2,[1]; Dioxane,1.8±0.0 ns
same,τave,[1]; Dioxane,2.0±0.0 ns
same,ϵ,[1]; Dioxane,73200 M⁻¹ cm⁻¹
same,Mol. Bright,[1]; Toluene,16884
same,Stokes Shift,[1]; Toluene,3071 cm⁻¹
same,knr,[1]; Toluene,79 10^7 s^−1
same,kr,[1]; Toluene,2.6 10^7 s^−1
same,Φf,[1]; Toluene,0.21
same,λabs,[1]; Toluene,518 nm
same,λem,[1]; Toluene,616 nm
same,τ1,[1]; Toluene,2.5±0.0 ns
same,τave,[1]; Toluene,2.5±0.01 ns
same,ϵ,[1]; Toluene,80400 M⁻¹ cm⁻¹
CC1=C(c2ccc3c4cccc5cccc(c6cccc2c63)c54)C(C)=[N+]2C1=C(c1c(C)cc(C)cc1C)c1c(C)c(I)c(C)n1[B-]2(F)F [MB2PI],Amp of τ1,[2]; Dioxane,2.5%
same,Amp of τ2,[2]; Dioxane,97.5%
same,Mol. Bright,[2]; Dioxane,4374
same,Stokes Shift,[2]; Dioxane,3049 cm⁻¹
same,knr,[2]; Dioxane,85 10^7 s^−1
same,λabs,[2]; Dioxane,~532 nm
same,λem,[2]; Dioxane,635 nm
same,τ1,[2]; Dioxane,4.0±0.1 ns
same,τ2,[2]; Dioxane,0.7 ns and 0.7±0.01 ns
same,ϵ,[2]; Dioxane,72900 M⁻¹ cm⁻¹
same,Φf,[2]; Dioxane,0.06
same,τave,[2]; Dioxane,1.1±0.0 ns
same,kr,[2]; Dioxane,5.73 10^7 s^−1
same,Amp of τ1,[2]; Toluene,5.6%
same,Amp of τ2,[2]; Toluene,94.4%
same,Mol. Bright,[2]; Toluene,6534
same,Stokes Shift,[2]; Toluene,2854 cm⁻¹
same,knr,[2]; Toluene,114 10^7 s^−1
same,λabs,[2]; Toluene,534 nm
same,λem,[2]; Toluene,630 nm
same,τ1,[2]; Toluene,1.6±0.1 ns
same,τ2,[2]; Toluene,0.7 ns and 0.7±0.01 ns
same,ϵ,[2]; Toluene,72600 M⁻¹ cm⁻¹
same,Φf,[2]; Toluene,0.09
same,τave,[2]; Toluene,0.8±0.0 ns
same,kr,[2]; Toluene,11.2 10^7 s^−1
same,emission intensity from water relative to emission intensity from toluene,[2],1.6%
same,Pearson Coefficient (r) with ER Tracker Blue/White,CHO cells,0.46 ± 0.01 and ~0.5
CC1=C(c2ccc3c4cccc5cccc(c6cccc2c63)c54)C(C)=[N+]2C1=C(c1c(C)cc(C)cc1C)c1c(C)cc(C)n1[B-]2(F)F [MB2P],Mol. Bright,[2]; Dioxane,20516
same,Stokes Shift,[2]; Dioxane,3131 cm⁻¹
same,knr,[2]; Dioxane,25 10^7 s^−1
same,λem,[2]; Dioxane,614 nm
same,τ1,[2]; Dioxane,3.1±0.1 ns
same,ϵ,[2]; Dioxane,89200 M⁻¹ cm⁻¹
same,Φf,[2]; Dioxane,0.23
same,τave,[2]; Dioxane,3.1±0.1 ns
same,kr,[2]; Dioxane,7.4 10^7 s^−1
same,Mol. Bright,[2]; Toluene,32148
same,Stokes Shift,[2]; Toluene,3002 cm⁻¹
same,knr,[2]; Toluene,23 10^7 s^−1
same,λabs,[2]; Toluene,517 nm
same,λem,[2]; Toluene,612 nm
same,τ1,[2]; Toluene,2.8±0.0 ns
same,ϵ,[2]; Toluene,89300 M⁻¹ cm⁻¹
same,Φf,[2]; Toluene,0.36
same,τave,[2]; Toluene,2.8±0.0 ns
same,kr,[2]; Toluene,12.9 10^7 s^−1
same,emission intensity from water relative to emission intensity from toluene,[2],0.13%
same,Pearson Coefficient (r) with ER Tracker Blue/White,CHO cells,0.56 ± 0.02 and ~0.5
